Test results: patent publication US20090118286A1, “Heterobicyclic Acrylamides” (Bayer Cropscience AG, priority 2005, published 2009)
Like-named read-outs stand apart in the source and are kept apart here.

What was measured:
[1] = log P determination by HPLC (EEC Directive 79/831 Annex V.A8, gradient method); format: physicochemical; conditions: for chromatographic logP: acetonitrile/0.1% strength aqueous phosphoric acid or formic acid
[2] = system: caterpillars of the army worm (Spodoptera frugiperda); test: Spodoptera frugiperda test, SPODFR spray treatment; format: in vivo; conditions: foliar, 168 h, 500 g a. i./ha, spray treatment of maize leaf discs, 7 d, read-out: % 7 d (effect in %, caterpillars killed)
Experimental: [table] To produce a suitable preparation of active compound, 1 part by weight of active compound is mixed with the stated amounts of solvents and emulsifier, and the concentrate is diluted with emulsifier-containing water to the desired concentration. Discs of maize leaves (Zea mays) are sprayed with a preparation of active compound of the desired concentration and, after drying, populated with caterpillars of the army worm (Spodoptera frugiperda). After the desired period of time, the effect in % is determined. 100% means that all caterpillars have been killed; 0% means that none of the caterpillars have been killed.

[3] = HPLC, gradient method, read-out: Physical data (logP)
[4] = HPLC, gradient method, read-out: Physical data: log P

Row | Structure (SMILES) | pest or weed control at 500 g/ha [2] | chromatographic logP [1, 4] | Physical data (logP) [1] | also measured
1 | CC(NC(=O)/C=C/c1c(-c2ccc(Cl)cc2)nc2sc(C(F)(F)F)nn12)C(F)(F)F (stereo not shown) [Example 0024] | 100% |  |  | chromatographic logP [1, 3]: 4.13
2 | CC(NC(=O)/C=C/c1c(-c2cccc(Cl)c2)nc2sc(C(F)(F)F)nn12)C(F)(F)F (stereo not shown) [Example 0094] | 100% |  |  | 
3 | O=C(/C=C/c1c(-c2ccccc2Cl)nc2sc(C(F)(F)F)nn12)NC1CCC1 [Example 0153] | 100% |  |  | chromatographic logP [1, 3]: 3.33
4 | CCC(C)NC(=O)/C=C/c1c(-c2ccccc2Cl)nc2sc(C(F)(F)F)nn12 (stereo not shown) [Example 0167] | 100% |  |  | chromatographic logP [1, 3]: 3.46
5 | CCCC(C)NC(=O)/C=C/c1c(-c2ccccc2Cl)nc2sc(C(F)(F)F)nn12 (stereo not shown) [Example 0168] | 100% |  |  | chromatographic logP [1, 3]: 3.85
6 | CC(C)C(C)NC(=O)/C=C/c1c(-c2ccccc2Cl)nc2sc(C(F)(F)F)nn12 (stereo not shown) [Example 0174] | 83% |  |  | chromatographic logP [1, 3]: 3.76
7 | CC(NC(=O)/C=C/c1c(-c2ccccc2Cl)nc2sc(C(F)(F)F)nn12)C(F)(F)F (stereo not shown) [Example 0175] | 100% |  |  | chromatographic logP [1, 3]: 3.63
8 | O=C(/C=C/c1c(-c2ccccc2Cl)nc2sc(C(F)(F)F)nn12)Nc1ccc(F)cc1 [Example 0201] | 100% |  |  | chromatographic logP [1, 3]: 4.08
9 | CCC(CC)NC(=O)/C=C/c1c(-c2ccccc2Cl)nc2sc(C(F)(F)F)nn12 [Example 0215] | 100% |  |  | chromatographic logP [1, 3]: 3.72
10 | O=C(/C=C/c1c(-c2ccccc2Cl)nc2sc(C(F)(F)F)nn12)N1CCOCC1 [Example 0223] | 100% | 2.79 |  | 
11 | Cc1ccccc1-c1nc2sc(C(F)(F)F)nn2c1/C=C/C(=O)NC(C)C [Example 0229] | 100% | 3.24 |  | 
12 | CCC(C)NC(=O)/C=C/c1c(-c2ccccc2C)nc2sc(C(F)(F)F)nn12 (stereo not shown) [Example 0238] | 100% | 3.59 |  | 
13 | CCCC(C)NC(=O)/C=C/c1c(-c2ccccc2C)nc2sc(C(F)(F)F)nn12 (stereo not shown) [Example 0239] | 100% | 3.94 |  | 
14 | Cc1ccccc1-c1nc2sc(C(F)(F)F)nn2c1/C=C/C(=O)NC(C)C(C)C (stereo not shown) [Example 0245] | 83% | 3.9 |  | 
15 | Cc1ccccc1-c1nc2sc(C(F)(F)F)nn2c1/C=C/C(=O)NC(C)C(F)(F)F (stereo not shown) [Example 0246] | 100% | 3.76 |  | 
16 | Cc1ccccc1-c1nc2sc(C(F)(F)F)nn2c1/C=C/C(=O)NC(C)c1ccccn1 (stereo not shown) [Example 0274] | 100% | 2.45 |  | 
17 | CCC(CC)NC(=O)/C=C/c1c(-c2ccccc2C)nc2sc(C(F)(F)F)nn12 [Example 0286] | 100% | 3.85 |  | 
18 | CC(C)NC(=O)/C=C/c1c(-c2ccc(F)cc2)nc2sc(C(F)(F)F)nn12 [Example 0300] | 100% | 3.24 |  | 
19 | CC(NC(=O)/C=C/c1c(-c2ccc(F)cc2)nc2sc(C(F)(F)F)nn12)C(F)(F)F (stereo not shown) [Example 0317] | 100% | 3.72 |  | 
20 | CC(C)NC(=O)/C=C/c1c(-c2ccccc2F)nc2sc(C(F)(F)F)nn12 [Example 0442] | 100% | 2.96 |  | 
21 | CCC(C)NC(=O)/C=C/c1c(-c2ccccc2F)nc2sc(C(F)(F)F)nn12 (stereo not shown) [Example 0451] | 100% | 3.33 |  | 
22 | CCCC(C)NC(=O)/C=C/c1c(-c2ccccc2F)nc2sc(C(F)(F)F)nn12 (stereo not shown) [Example 0452] | 100% | 3.68 |  | 

Row | Structure (SMILES) | pest or weed control at 500 g/ha [2] | chromatographic logP [1, 4] | Physical data (logP) [1] | also measured
23 | CC(NC(=O)/C=C/c1c(-c2ccccc2F)nc2sc(C(F)(F)F)nn12)C(F)(F)F (stereo not shown) [Example 0459] | 100% | 3.55 |  | 
24 | CCC(CC)NC(=O)/C=C/c1c(-c2ccccc2F)nc2sc(C(F)(F)F)nn12 [Example 0499] | 83% | 3.59 |  | 
25 | CC(C)NC(=O)/C=C/c1c(-c2ccc(Cl)cc2Cl)nc2sc(C(F)(F)F)nn12 [Example 0513] | 100% | 3.69 |  | 
26 | CC(C)(C)NC(=O)/C=C/c1c(-c2ccc(Cl)cc2Cl)nc2sc(C(F)(F)F)nn12 [Example 0515] | 100% | 4.32 |  | 
27 | CC(NC(=O)/C=C/c1c(-c2ccc(Cl)cc2Cl)nc2sc(C(F)(F)F)nn12)C(F)(F)F (stereo not shown) [Example 0527] | 100% | 4.23 |  | 
28 | O=C(/C=C/c1c(-c2ccc(Cl)cc2Cl)nc2sc(C(F)(F)F)nn12)Nc1ccc(F)cc1 [Example 0553] | 100% | 4.63 |  | 
29 | CCN(CC)C(=O)/C=C/c1c(-c2ccc(Cl)cc2Cl)nc2sc(C(F)(F)F)nn12 [Example 0573] | 100% | 4.18 |  | 
30 | CC(C)NC(=O)/C=C/c1c(-c2ccc(F)cc2Cl)nc2sc(C(F)(F)F)nn12 [Example 0581] | 100% | 3.32 |  | 
31 | CC(C)(C)NC(=O)/C=C/c1c(-c2ccc(F)cc2Cl)nc2sc(C(F)(F)F)nn12 [Example 0583] | 100% | 3.89 |  | 
32 | O=C(/C=C/c1c(-c2ccc(F)cc2Cl)nc2sc(C(F)(F)F)nn12)NCc1ccc(F)cc1 [Example 0614] | 100% |  |  | 
33 | O=Cc1c(-c2ccc(-c3ccc(Cl)cc3)cc2)nc2sc(C(F)(F)F)nn12 [IVA119] |  |  | 4.63 | 
34 | O=Cc1c(-c2ccc(OCc3ccccc3)cc2)nc2sc(C(F)(F)F)nn12 [IVA120] |  |  | 4.02 | 
35 | O=Cc1c(-c2ccc(-c3ccc(OC(F)(F)F)cc3)cc2)nc2sc(C(F)(F)F)nn12 [IVA121] |  |  | 4.78 | 
36 | O=Cc1c(-c2ccc(Oc3ccc(Cl)cc3)cc2)nc2sc(C(F)(F)F)nn12 [IVA122] |  |  | 4.56 | 
37 | O=Cc1c(-c2ccc(Cl)nc2)nc2sc(C(F)(F)F)nn12 [IVA123] |  |  | 2.54 | 
38 | O=Cc1c(-c2sccc2Cl)nc2sc(C(F)(F)F)nn12 [IVA124] |  |  | 2.92 | 
39 | O=C(O)/C=C/c1c(-c2ccccc2Cl)nc2scnn12 [VA112] |  |  | 1.84 | 
40 | O=C(O)/C=C/c1c(-c2ccccc2Cl)nc2sc(C(F)(F)C(F)(F)F)nn12 [VA113] |  |  | 3.19 | 
41 | O=C(O)/C=C/c1c(-c2ccc(F)cc2Cl)nc2sc(C(F)(F)C(F)(F)F)nn12 [VA114] |  |  | 3.31 | 
42 | O=C(O)/C=C/c1c(-c2nccs2)nc2sc(C(F)(F)F)nn12 [VA115] |  |  | 2.48 | 
43 | O=C(O)/C=C/c1c(-c2nccs2)nc2sc(C(F)(F)C(F)(F)F)nn12 [VA116] |  |  | 2.97 | 
44 | O=C(O)/C=C/c1c(-c2cncc(Br)c2)nc2sc(C(F)(F)F)nn12 [VA117] |  |  | 2.54 | 

Row | Structure (SMILES) | pest or weed control at 500 g/ha [2] | chromatographic logP [1, 4] | Physical data (logP) [1] | also measured
45 | O=C(O)/C=C/c1c(-c2cccnc2Cl)nc2sc(C(F)(F)F)nn12 [VA118] |  |  | 2.1 | 
46 | O=C(O)/C=C/c1c(-c2ccc(-c3ccccc3)cc2)nc2sc(C(F)(F)F)nn12 [VA120] |  |  | 3.77 | 
47 | O=C(O)/C=C/c1c(-c2ccc(-c3ccc(Cl)cc3)cc2)nc2sc(C(F)(F)F)nn12 [VA121] |  |  | 4.26 | 
48 | O=C(O)/C=C/c1c(-c2ccc(OCc3ccccc3)cc2)nc2sc(C(F)(F)F)nn12 [VA122] |  |  | 3.73 | 
49 | O=C(O)/C=C/c1c(-c2ccc(-c3ccc(OC(F)(F)F)cc3)cc2)nc2sc(C(F)(F)F)nn12 [VA123] |  |  | 4.46 | 
50 | O=C(O)/C=C/c1c(-c2ccc(Oc3ccc(Cl)cc3)cc2)nc2sc(C(F)(F)F)nn12 [VA124] |  |  | 4.22 | 
51 | O=C(O)/C=C/c1c(-c2ccc(Cl)nc2)nc2sc(C(F)(F)F)nn12 [VA125] |  |  | 2.42 | 
52 | O=C(O)/C=C/c1c(-c2sccc2Cl)nc2sc(C(F)(F)F)nn12 [VA126] |  |  | 2.72 | 
53 | O=C(O)/C=C/c1c(-c2ccc(F)cc2Cl)nc2sc(C(F)(F)C(F)F)nn12 [VA134] |  |  | 3.01 | 
54 | O=C(O)/C=C/c1c(-c2ccc(F)cc2Cl)nc2sc(C(F)(F)C(F)(F)C(F)(F)F)nn12 [VA135] |  |  | 3.75 | 
55 | O=C(O)/C=C/c1c(-c2csc(Cl)n2)nc2sc(C(F)(F)C(F)(F)F)nn12 [VA136] |  |  | 3.25 | 
56 | O=C(O)/C=C/c1c(-c2ccc(Cl)cc2Cl)nc2sc(C(F)(F)F)nn12 [VA-1, (2E)-3-[6-(2,4-Dichlorophenyl)-2-(trifluoromethyl)imidazo[2,1-b][1,3,4]thiadiazol-5-yl]acrylic Acid] |  |  |  | chromatographic logP ([1]; HPLC gradient method, preparation examples, read-out: log P): 3.15
57 | Cc1ccccc1-c1nc2sc(C(F)(F)F)nn2c1/C=C/C(=O)O [VA-5] |  |  | 2.77 | 
58 | O=C(O)/C=C/c1c(-c2ccc(F)cc2)nc2sc(C(F)(F)F)nn12 [VA-6] |  |  | 2.75 | 
59 | O=C(O)/C=C/c1c(-c2cccc(C(F)(F)F)c2)nc2sc(C(F)(F)F)nn12 [VA-7] |  |  | 3.33 | 
60 | O=C(O)/C=C/c1c(-c2ccccc2F)nc2sc(C(F)(F)F)nn12 [VA-8] |  |  | 2.55 | 
61 | O=C(O)/C=C/c1c(-c2ccc(F)cc2Cl)nc2sc(C(F)(F)F)nn12 [VA-9] |  |  | 2.84 | 
62 | COc1ccc(-c2nc3sc(C(F)(F)F)nn3c2/C=C/C(=O)O)cc1OC [VA-10] |  |  | 2.43 | 
63 | O=C(O)/C=C/c1c(-c2ccccc2Cl)nc2sc(C(F)F)nn12 [VA-14] |  |  | 2.41 | 
64 | O=C(O)/C=C/c1c(-c2ccccc2Cl)nc2sc(C(F)(F)Cl)nn12 [VA-24] |  |  | 2.93 | 
